Laboratory results from the NIST ThermoML archive (doi:10.1016/j.jct.2006.05.009).

Columns and labels:
[1] = Molar enthalpy of transition or fusion
[2] = molar heat capacity at constant pressure; settings: 101.33 kPa, Crystal 2

Cn1c(=O)c2c(ncn2C)n(C)c1=O [caffeine]
Settings	Triple point temperature [K]
Crystal 1	509
Crystal 2	413.39

Settings	Molar enthalpy of transition or fusion [kcal/mol]	molar heat capacity at constant pressure [J/K/mol]
[1], Crystal 1	4.75	–
[1], Crystal 2	0.82	–
[2], 80.83 K	–	98.31
[2], 84.15 K	–	101.95
[2], 87.22 K	–	104.62
[2], 90.15 K	–	106.27
[2], 93.05 K	–	109.02
[2], 95.91 K	–	112.23
[2], 98.73 K	–	116.53
[2], 101.49 K	–	119.06
[2], 104.21 K	–	121.47
[2], 106.88 K	–	123.99
[2], 109.98 K	–	125.77
[2], 113.03 K	–	127.49
[2], 115.96 K	–	130.48
[2], 118.81 K	–	132.67
[2], 121.58 K	–	134.84
[2], 124.27 K	–	136.76
[2], 126.89 K	–	139.36
[2], 129.43 K	–	140.97
[2], 131.92 K	–	142.97
[2], 134.34 K	–	144.92
[2], 136.69 K	–	145.99
[2], 138.99 K	–	148.53
[2], 141.24 K	–	149.98
[2], 143.42 K	–	150.47
[2], 145.52 K	–	151.98
[2], 148 K	–	155.83
[2], 150.06 K	–	156.99
[2], 152.08 K	–	157.88
[2], 154.08 K	–	159.38
[2], 156.06 K	–	160.61
[2], 158.01 K	–	161.82
[2], 159.95 K	–	162.55
[2], 161.87 K	–	163.14
[2], 163.77 K	–	164.64
[2], 165.79 K	–	164.91
[2], 168.47 K	–	166.4
[2], 171.41 K	–	166.83
[2], 174.32 K	–	167.9
[2], 177.21 K	–	169.06
[2], 180.03 K	–	169.58
[2], 182.8 K	–	171.5
[2], 185.57 K	–	172.7
[2], 188.3 K	–	174.64
[2], 191 K	–	176.3
[2], 193.71 K	–	178.38
[2], 196.39 K	–	179.3
[2], 199.05 K	–	180.41
[2], 201.7 K	–	181.59
[2], 204.31 K	–	182.99
[2], 206.91 K	–	184.79
[2], 209.47 K	–	186.12
[2], 212.08 K	–	187.01
[2], 214.76 K	–	189.97
[2], 217.47 K	–	191.2
[2], 220.2 K	–	192.68
[2], 222.95 K	–	194.21
[2], 226.26 K	–	195.06
[2], 230.04 K	–	197.34
[2], 233.76 K	–	198.99
[2], 237.43 K	–	200.1
[2], 241.09 K	–	202.07
[2], 244.7 K	–	202.6
[2], 248.28 K	–	203.14
[2], 251.82 K	–	203.17
[2], 255.32 K	–	204.06
[2], 258.78 K	–	205.75
[2], 259.39 K	–	207.72
[2], 262.25 K	–	207.77
[2], 265.07 K	–	209.13
[2], 267.83 K	–	210.94
[2], 270.58 K	–	212.28
[2], 273.31 K	–	213.56
[2], 276.04 K	–	215.35
[2], 278.76 K	–	217.05
[2], 281.49 K	–	217.99
[2], 284.22 K	–	220.07
[2], 286.92 K	–	223.22
[2], 289.58 K	–	223.75
[2], 292.23 K	–	225.69
[2], 294.87 K	–	226.47
[2], 297.52 K	–	227.12
[2], 300.14 K	–	227.17
[2], 302.75 K	–	228.98
[2], 305.33 K	–	230.29
[2], 307.91 K	–	230.71
[2], 310.51 K	–	233.27
[2], 313.09 K	–	234.23
[2], 315.65 K	–	234.61
[2], 318.19 K	–	235.23
[2], 320.86 K	–	237.37
[2], 323.42 K	–	238.29
[2], 325.99 K	–	238.92
[2], 328.63 K	–	240.12
[2], 331.31 K	–	243.07
[2], 333.96 K	–	245.08
[2], 336.61 K	–	246.31
[2], 339.22 K	–	248.21
[2], 341.76 K	–	249.29
[2], 344.27 K	–	251.55
[2], 346.83 K	–	253.2
[2], 349.18 K	–	254.04
[2], 351.69 K	–	255.21
[2], 354.36 K	–	256.94
[2], 357.01 K	–	258.67
[2], 359.66 K	–	260.51
[2], 362.27 K	–	261.86
[2], 364.86 K	–	262.9
[2], 367.44 K	–	264.99
[2], 369.95 K	–	266.24
[2], 372.45 K	–	266.46
[2], 374.91 K	–	267.26
[2], 377.39 K	–	269.44
[2], 379.84 K	–	270.33
[2], 382.28 K	–	271.84
[2], 384.69 K	–	272.71
[2], 387.08 K	–	274.88
